In ChEMBL document CHEMBL4342449, “Isolation of a High-Affinity Cannabinoid for the Human CB1 Receptor from a Medicinal Cannabis sativa Variety: Δ9-Tetrahydrocannabutol, the Butyl Homologue of Δ9-Tetrahydrocannabinol” (J Nat Prod, 2020):
Active and inactive are the calls of the source. No cut-off for these calls is given here.

Legend:
Cannabinoid receptor 1 = Cannabinoid receptor 1 (Homo sapiens, UniProt P21554); experiment: Binding affinity to human CB1 receptor
Mus musculus [1] = experiment: (§1) Analgesic activity in formalin-induced nociception CD-1 mouse model assessed as reduction in pain behaviour by measuring less flinching of formalin injected hind paw at 3 mg/kg, ip pretreated with compound 20 mins prior to formalin induction co-treated with AM630 and measured every 5 mins for 1 hr by formalin test; assay type: functional, organism-based
Mus musculus [2] = experiment: as §1, with “lifting” for “flinching”, “induction” for “induction co-treated with AM630 and”, “during first phase (0 to 7” for “every 5”, “after formalin injection)” for “for 1 hr”; assay type: functional, organism-based
Mus musculus [3] = experiment: as §1, with “induction” for “induction co-treated with AM630 and”, “during second phase (every” for “every”, “15 to 60 mins after formalin injection)” for “1 hr”; assay type: functional, organism-based
Mus musculus [4] = experiment: as §1, with “shaking” for “flinching”; assay type: functional, organism-based
Mus musculus [5] = experiment: as §1, with “licking” for “flinching”; assay type: functional, organism-based
Mus musculus [6] = experiment: as §1, with “licking” for “flinching”, “AM251” for “AM630”; assay type: functional, organism-based
Mus musculus [7] = experiment: as §1, with “shaking” for “flinching”, “induction” for “induction co-treated with AM630 and”, “during first phase (0 to 7” for “every 5”, “after formalin injection)” for “for 1 hr”; assay type: functional, organism-based
Mus musculus [8] = experiment: In vivo Cannabi-mimetic activity in C57BL6/J mouse assessed as antinociceptive effect by measuring licking of hind paws at 10 mg/kg, ip measured for 85 mins by hot plate test (reference value: 10.15 +/- 0.70 sec); assay type: functional
Mus musculus [9] = experiment: In vivo Cannabi-mimetic activity in C57BL6/J mouse assessed as catalepsy bar at 10 mg/kg, ip by bar test (reference value: 3.5 +/- 0.65 sec); assay type: functional
Mus musculus [10] = experiment: as §1, with “licking” for “flinching”, “induction” for “induction co-treated with AM630 and”, “during first phase (0 to 7” for “every 5”, “after formalin injection)” for “for 1 hr”; assay type: functional, organism-based
Mus musculus [11] = experiment: as §1, with “lifting” for “flinching”; assay type: functional, organism-based
Mus musculus [12] = experiment: as §1, with “favoring” for “flinching”, “induction” for “induction co-treated with AM630 and”, “during first phase (0 to 7” for “every 5”, “after formalin injection)” for “for 1 hr”; assay type: functional, organism-based
Mus musculus [13] = experiment: as §1, with “AM251” for “AM630”; assay type: functional, organism-based
Mus musculus [14] = experiment: In vivo Cannabi-mimetic activity in C57BL6/J mouse assessed as alteration on the spontaneous activity at 10 mg/kg, ip measured for 15 mins by open field test (reference value: 3283 +/- 390.5 cm); assay type: functional
Mus musculus [15] = experiment: In vivo Cannabi-mimetic activity in C57BL6/J mouse assessed as antinociceptive effect by measuring licking of hind paws at 20 mg/kg, ip measured for 85 mins by hot plate test (reference value: 10.15 +/- 0.70 sec); assay type: functional
Mus musculus [16] = experiment: In vivo Cannabi-mimetic activity in C57BL6/J mouse assessed as alteration on the spontaneous activity at 20 mg/kg, ip measured for 15 mins by open field test (reference value: 3283 +/- 390.5 cm); assay type: functional
Mus musculus [17] = experiment: as §1, with “shaking” for “flinching”, “induction” for “induction co-treated with AM630 and”, “during second phase (every” for “every”, “15 to 60 mins after formalin injection)” for “1 hr”; assay type: functional, organism-based
Mus musculus [18] = experiment: as §1, with “favoring” for “flinching”; assay type: functional, organism-based
Mus musculus [19] = experiment: as §1, with “induction” for “induction co-treated with AM630 and”, “during first phase (0 to 7” for “every 5”, “after formalin injection)” for “for 1 hr”; assay type: functional, organism-based
Mus musculus [20] = experiment: In vivo Cannabi-mimetic activity in C57BL6/J mouse assessed as rectal temperature at 10 mg/kg, ip measured after 50 mins (reference value: 0.53 +/- 0.21 degreeC); assay type: functional
Mus musculus [21] = experiment: as §1, with “lifting” for “flinching”, “AM251” for “AM630”; assay type: functional, organism-based
Mus musculus [22] = experiment: as §1, with “favoring” for “flinching”, “AM251” for “AM630”; assay type: functional, organism-based
Mus musculus [23] = experiment: as §1, with “favoring” for “flinching”, “induction” for “induction co-treated with AM630 and”, “during second phase (every” for “every”, “15 to 60 mins after formalin injection)” for “1 hr”; assay type: functional, organism-based
Mus musculus [24] = experiment: as §1, with “licking” for “flinching”, “induction” for “induction co-treated with AM630 and”, “during second phase (every” for “every”, “15 to 60 mins after formalin injection)” for “1 hr”; assay type: functional, organism-based
Mus musculus [25] = experiment: In vivo Cannabi-mimetic activity in C57BL6/J mouse assessed as rectal temperature at 20 mg/kg, ip measured after 50 mins (reference value: 0.53 +/- 0.21 degreeC); assay type: functional
Mus musculus [26] = experiment: as §1, with “lifting” for “flinching”, “induction” for “induction co-treated with AM630 and”, “during second phase (every” for “every”, “15 to 60 mins after formalin injection)” for “1 hr”; assay type: functional, organism-based
Mus musculus [27] = experiment: as §1, with “shaking” for “flinching”, “AM251” for “AM630”; assay type: functional, organism-based
Mus musculus [28] = experiment: In vivo Cannabi-mimetic activity in C57BL6/J mouse assessed as catalepsy bar at 20 mg/kg, ip by bar test (reference value: 3.5 +/- 0.65 sec); assay type: functional

Chain of Cannabinoid receptor 1 (P21554 whole entry): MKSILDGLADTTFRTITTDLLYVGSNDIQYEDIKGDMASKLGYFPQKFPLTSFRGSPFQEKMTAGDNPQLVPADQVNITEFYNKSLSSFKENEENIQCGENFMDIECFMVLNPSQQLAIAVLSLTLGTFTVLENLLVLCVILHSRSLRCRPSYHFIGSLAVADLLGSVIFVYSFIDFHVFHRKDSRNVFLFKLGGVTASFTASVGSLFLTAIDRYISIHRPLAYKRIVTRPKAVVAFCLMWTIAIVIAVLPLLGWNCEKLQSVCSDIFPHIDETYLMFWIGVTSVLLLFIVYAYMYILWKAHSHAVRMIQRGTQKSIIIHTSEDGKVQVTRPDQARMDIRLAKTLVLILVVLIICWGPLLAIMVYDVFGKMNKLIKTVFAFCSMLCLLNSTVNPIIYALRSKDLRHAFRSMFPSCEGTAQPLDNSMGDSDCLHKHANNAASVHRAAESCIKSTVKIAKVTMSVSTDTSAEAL

`CCCc1cc(O)c2c(c1)OC(C)(C)[C@@H]1CCC(C)=C[C@@H]21` [TETRAHYDROCANNABIVARIN] was tested. Which Ki (Cannabinoid receptor 1) did it give?
The Ki was 75.4 nM.

How did the Activity (Mus musculus [1]) turn out when `CCCCc1cc(O)c2c(c1)OC(C)(C)[C@@H]1CCC(C)=C[C@@H]21` was run?
Its Activity is “inactive”.

What about the Activity (Mus musculus [2]) of the same molecule?
The Activity was “Active”.

And the Activity (Mus musculus [3])?
Its Activity is “Active”.

And the Activity (Mus musculus [4])?
The Activity was “inactive”.

What about the Activity (Mus musculus [5]) of the same molecule?
Its Activity is “inactive”.

And the Activity (Mus musculus [6])?
Its Activity is “inactive”.

What about the Activity (Mus musculus [7]) of the same molecule?
Its Activity is “Active”.

What about the Time (Mus musculus [8]) of the same molecule?
Its Time is 7.94 s.

And the Time (Mus musculus [9])?
Its Time is 3 s.

What about the Activity (Mus musculus [10]) of the same molecule?
The Activity was “Active”.

What about the Activity (Mus musculus [11]) of the same molecule?
Its Activity is “inactive”.

What about the Activity (Mus musculus [12]) of the same molecule?
The Activity was “Active”.

What about the Activity (Mus musculus [13]) of the same molecule?
The Activity was “inactive”.

What about the Activity (Mus musculus [14]) of the same molecule?
The Activity was 3220 cm.

And the Time (Mus musculus [15])?
The Time was 17.5 s.

And the Activity (Mus musculus [16])?
The Activity was 3591 cm.

And the Activity (Mus musculus [17])?
Its Activity is “Active”.

And the Activity (Mus musculus [18])?
Its Activity is “inactive”.

What about the Activity (Mus musculus [19]) of the same molecule?
The Activity was “Active”.

And the Activity (Mus musculus [20])?
The Activity was -0.28 °C.

What about the Activity (Mus musculus [21]) of the same molecule?
Its Activity is “inactive”.

What about the Activity (Mus musculus [22]) of the same molecule?
Its Activity is “inactive”.

And the Activity (Mus musculus [23])?
The Activity was “Active”.

And the Activity (Mus musculus [24])?
Its Activity is “Active”.

What about the Activity (Mus musculus [25]) of the same molecule?
The Activity was 0.4 °C.

And the Activity (Mus musculus [26])?
Its Activity is “Active”.

And the Activity (Mus musculus [27])?
Its Activity is “inactive”.

What about the Time (Mus musculus [28]) of the same molecule?
Its Time is 13 s.
